Experimental data reported in the supplement of paper PMC13380429.

What was measured:
Conditions in all cases: 72 h
U2OS [1] = assay: drug sensitivity score (DSS) for viability; higher = more toxic; extreme values may be limits of the assay
Calu-3 [2] = assay: as above
Caco-2 [3] = assay: as above
Vero E6 [4] = assay: as above
HepG2 [5] = assay: as above
U2OS [6] = assay: relative viability EC50 (midpoint between 100% and the lowest measured viability); higher = less toxic
Calu-3 [7] = assay: as above
Caco-2 [8] = assay: as above
Vero E6 [9] = assay: as above
HepG2 [10] = assay: as above
U2OS [11] = assay: cell viability relative to DMSO; higher = less toxic
Calu-3 [12] = assay: as above
Caco-2 [13] = assay: as above
Vero E6 [14] = assay: as above
HepG2 [15] = assay: as above

Row | Compound | drug sensitivity score (U2OS [1]) | drug sensitivity score (Calu-3 [2]) | drug sensitivity score (Caco-2 [3]) | drug sensitivity score (Vero E6 [4]) | drug sensitivity score (HepG2 [5]) | relative viability EC50 (U2OS [6]) [µM] | relative viability EC50 (Calu-3 [7]) [µM] | relative viability EC50 (Caco-2 [8]) [µM] | relative viability EC50 (Vero E6 [9]) [µM] | relative viability EC50 (HepG2 [10]) [µM] | cell viability (U2OS [11]; 1 nM) [%] | cell viability (U2OS [11]; 10 nM) [%] | cell viability (U2OS [11]; 100 nM) [%] | cell viability (U2OS [11]; 1000 nM) [%] | cell viability (U2OS [11]; 10000 nM) [%] | cell viability (Calu-3 [12]; 1 nM) [%] | cell viability (Calu-3 [12]; 10 nM) [%] | cell viability (Calu-3 [12]; 100 nM) [%] | cell viability (Calu-3 [12]; 1000 nM) [%] | cell viability (Calu-3 [12]; 10000 nM) [%] | cell viability (Caco-2 [13]; 1 nM) [%] | cell viability (Caco-2 [13]; 10 nM) [%] | cell viability (Caco-2 [13]; 100 nM) [%] | cell viability (Caco-2 [13]; 1000 nM) [%] | cell viability (Caco-2 [13]; 10000 nM) [%] | cell viability (Vero E6 [14]; 1 nM) [%] | cell viability (Vero E6 [14]; 10 nM) [%] | cell viability (Vero E6 [14]; 100 nM) [%] | cell viability (Vero E6 [14]; 1000 nM) [%] | cell viability (Vero E6 [14]; 10000 nM) [%] | cell viability (HepG2 [15]; 1 nM) [%] | cell viability (HepG2 [15]; 10 nM) [%] | cell viability (HepG2 [15]; 100 nM) [%] | cell viability (HepG2 [15]; 1000 nM) [%] | cell viability (HepG2 [15]; 10000 nM) [%]
1 | O=c1[nH]ccc2cc(OC3CCNCC3)ccc12 | 0 | 0 | 0 | 0 | 0 | > 10 | > 10 | > 10 | > 10 | > 10 | 97.6 | 98.2 | 101 | 96.3 | 94.9 | 93.8 | 106 | 111 | 127 | 130 | 89.7 | 96.4 | 99.7 | 100 | 106 | 97.1 | 101 | 89.6 | 100 | 92 | 98.1 | 99.7 | 108 | 112 | 106
2 | O=c1c(-c2ccc(O)cc2)coc2c([C@@H]3O[C@H](CO)[C@@H](O)[C@H](O)[C@H]3O)c(O)ccc12 [puerarin] | 0 | 0 | 0 | 0 | 0 | > 10 | > 10 | > 10 | > 10 | > 10 | 99.7 | 95.2 | 96 | 94.6 | 100 | 89.3 | 92.3 | 97.5 | 89.6 | 95.6 | 98.4 | 99.8 | 96 | 98 | 101 | 99.7 | 99.5 | 99.9 | 107 | 103 | 94.4 | 102 | 94.8 | 107 | 98.2
3 | CCCN1CCC[C@@H]2Cc3nc(N)ncc3C[C@H]21 [quinelorane] | 0 | 0 | 0 | 0 | 0 | > 10 | > 10 | > 10 | > 10 | > 10 | 103 | 105 | 102 | 97.1 | 98.5 | 102 | 99 | 93.2 | 103 | 105 | 101 | 92.9 | 98.6 | 85.7 | 104 | 102 | 99.6 | 101 | 93.2 | 99 | 95.9 | 94.1 | 97.6 | 91.8 | 96.4
4 | C#CCN(C)Cc1ccccc1 [pargyline] | 0 | 0 | 0 | 0 | 0 | > 10 | > 10 | > 10 | > 10 | > 10 | 99.2 | 101 | 99.9 | 102 | 103 | 93.5 | 97.4 | 95.4 | 89.3 | 102 | 96 | 93 | 96.3 | 98.6 | 103 | 96.4 | 96.3 | 92.7 | 93.1 | 107 | 98.7 | 96.2 | 109 | 89.7 | 102
5 | C=C[C@H]1CN2CC[C@H]1CC2C(OC(=O)OCC)c1ccnc2ccc(OC)cc12 (stereo in doubt) [quinine-ethyl-carbonate] | 0 | 0 | 0 | 0 | 0 | > 10 | > 10 | > 10 | > 10 | > 10 | 99.9 | 97.3 | 101 | 96.9 | 96.9 | 99.9 | 104 | 102 | 90.4 | 101 | 114 | 97.1 | 94.2 | 105 | 114 | 104 | 95.9 | 105 | 107 | 100 | 93.2 | 97.7 | 100 | 104 | 97.4
6 | COP(=O)(OC)OC(c1ccc(Cl)cc1)P(=O)(OC)OC (stereo not given) [mifobate] | 0 | 0 | 0 | 0 | 0 | > 10 | > 10 | > 10 | > 10 | > 10 | 101 | 97.5 | 101 | 94.4 | 98.3 | 93.6 | 94.1 | 85.1 | 96.7 | 96.3 | 106 | 94.5 | 98 | 107 | 105 | 101 | 94.5 | 98 | 92.5 | 100 | 107 | 98.5 | 92.8 | 99.8 | 93.7
7 | CCCC(=O)C1(c2ccccc2)CCN(C(=O)[C@@H](Cc2ccc(OC)cc2)NC(=O)[C@@H](N)Cc2cncn2C)CC1 | 0 | 0 | 0 | 0 | 0 | > 10 | > 10 | > 10 | > 10 | > 10 | 98.8 | 97.9 | 104 | 102 | 97.7 | 98.3 | 100 | 96.6 | 101 | 106 | 108 | 94.9 | 97.3 | 102 | 99.7 | 102 | 101 | 98.7 | 102 | 97.1 | 95.4 | 105 | 97.8 | 118 | 95.3
8 | Cc1ccc(S(=O)(=O)n2c(N)nc3ccccc32)cc1 [ML130] | 0 | 0 | 0 | 0 | 0 | > 10 | > 10 | > 10 | > 10 | > 10 | 104 | 108 | 105 | 103 | 97.3 | 103 | 89.2 | 99.5 | 101 | 103 | 107 | 97 | 107 | 101 | 90.5 | 103 | 108 | 103 | 109 | 96.2 | 98 | 107 | 111 | 100 | 104
9 | COc1ccc(NC(=O)c2ccc(C(=N)N(C)C)cc2)c(C(=O)Nc2ccc(Cl)cn2)c1 [betrixaban] | 0 | 0 | 0 | 0 | 0 | > 10 | > 10 | > 10 | > 10 | > 10 | 96.2 | 100 | 95.6 | 100 | 97.8 | 90.9 | 101 | 105 | 95.1 | 95.5 | 101 | 97.5 | 97.5 | 97.6 | 91.5 | 98.7 | 99.1 | 97.3 | 96.4 | 93.9 | 98.6 | 100 | 105 | 96.3 | 100
10 | CS(=O)(=O)c1ccc([C@@H](O)[C@@H](CF)NC(=O)C(Cl)Cl)cc1 [florfenicol] | 0 | 0 | 0 | 0 | 3.9 | > 10 | > 10 | > 10 | > 10 | 2.11 | 99.9 | 96.2 | 99.1 | 98.3 | 99.5 | 93.7 | 90.8 | 86.2 | 103 | 98.8 | 109 | 99.9 | 107 | 97.1 | 96 | 100 | 104 | 95.9 | 104 | 95.2 | 107 | 91 | 115 | 93.1 | 48
11 | NCC(=O)O [AZD4282] | 0 | 0 | 0 | 0 | 0 | > 10 | > 10 | > 10 | > 10 | > 10 | 93.7 | 96.7 | 100 | 98.9 | 102 | 86.3 | 101 | 96.3 | 102 | 97.3 | 99 | 104 | 86.4 | 99.7 | 103 | 102 | 103 | 99.3 | 104 | 100 | 95.3 | 96 | 96.6 | 102 | 101
12 | C[C@]12CC[C@@H]3c4ccc(O)cc4C[C@@H](CCCCCCCCC[S+]([O-])CCCC(F)(F)C(F)(F)F)[C@H]3[C@@H]1CC[C@@H]2O (stereo not given in full) [fulvestrant] | 0 | 0 | 0.1 | 0 | 0.3 | > 10 | > 10 | > 10 | > 10 | > 10 | 105 | 110 | 102 | 103 | 88.7 | 96.7 | 114 | 104 | 90.2 | 92.7 | 104 | 107 | 102 | 110 | 85.4 | 100 | 102 | 100 | 96.9 | 99.6 | 100 | 102 | 96.8 | 98 | 86.7
13 | COc1cccc(CCc2ccccc2OCC(CN(C)C)OC(=O)CCC(=O)O)c1 (stereo not given) [sarpogrelate] | 0 | 0 | 0 | 0 | 0 | > 10 | > 10 | > 10 | > 10 | > 10 | 100 | 105 | 99.8 | 103 | 95.3 | 96.5 | 98.3 | 96.4 | 102 | 96.9 | 92.1 | 101 | 98.4 | 105 | 98.2 | 105 | 98.6 | 104 | 100 | 95.8 | 109 | 104 | 105 | 92.5 | 102
14 | CCOC(=O)[C@H](CCc1ccccc1)N[C@H]1CS[C@H](c2cccs2)CN(CC(=O)O)C1=O [temocapril] | 0 | 0 | 0 | 0 | 0 | > 10 | > 10 | > 10 | > 10 | > 10 | 97.7 | 101 | 94.2 | 99.2 | 95.4 | 93.8 | 108 | 95.5 | 103 | 102 | 99.4 | 95.8 | 93.2 | 93.3 | 105 | 98.8 | 105 | 109 | 91.3 | 97.8 | 103 | 98.6 | 108 | 96.7 | 112
